From US12258389B2, “Methods and compositions for inhibition of EGF/EGFR pathway in combination with tyrosine kinase inhibitors” (In3Bio Ltd., priority 2015, dated 2025) come the findings set out here.

Molecules are shown by their SMILES. Where two headings read alike, the source gives them in different places.

Experiment [1] has as its system p-ERK1/2. Briefly: Western blot, phosphorylated ERK1/2 normalised to total ERK1/2, PC9 cells. The class given is cell-based, human. Here is the method:
(§1) Experiment 1: In a typical standard experiment, five T-75 flasks of the cell line under study were cultured to approximately 70% confluence, washed twice with PBS and grown o/n in serum-free medium. The serum-starved cells were then washed again and treated as follows:
(§2) Treatment was for about 15 minutes.
(§3) Experiment 2: In a second experiment anti-EGF was tested only at 1 to 2 dilution. […] Treatment was prolonged to about 2 hours in this experiment.
(§4) Both EGF and anti-EGF antibodies, which used in this project were derived from an immunization study in monkeys that received 4 immunizations of the rEGF-rP64k conjugate CIMAvax-EGF vaccine formulated with Montanide adjuvant. The vaccine and resulting anti-EGF antibodies were provided by Bioven (Europe) Ltd, Cruikshank Building North, Aberdeen Biotechnology, Craibstone Aberdeen, U.K. Scotland. Antibodies for Western blotting were purchased from Santa Cruz Biotechnologies (Palo Alto, CA).
(§5) Experiment 3: In a third experiment anti-EGF was tested only at 1 to 2 dilution. […] Treatment was prolonged to about 2 hours in this experiment. […] Both EGF and anti-EGF were provided by Bioven. Antibodies for Western blotting were purchased from Santa Cruz Biotechnologies (Palo Alto, CA).
(§6) Subsequently, three kind of experiments were performed:
(§7) C. Non-Standard Conditions: In experiments “under non-standard conditions”, PC9 (4 flasks) cells were not submitted to serum starvation and activation with fetal bovine serum instead of human EGF was employed. They were washed with PBS (×2), drugs were added in medium containing 10% FBS and incubated for 2 hours.
Background: Immunoblotting shows a protein as a band on a membrane.

The test system of experiment [2] is p-EGFR. The experiment can be described thus: Western blot, phosphorylated EGFR, PC9-GR4 (T790M positive) cells. The settings on record: AZD9291 0.2 μM, Ab1, Ctrl = 100. Type of experiment: cell-based, human. The source says:
(§8) As described above, the PC9 cell line carries a 15 bp deletion in exon 19 of EGFR, making this cell line sensitive to TKI's. It represents a model for the EGFR Mutated segment of the NSCLC patient population receiving TKI treatment. As a part of this effort, PC9-derived cell lines resistant to TKIs were developed.
(§9) In 5-day experiments, PC9 cells were not submitted to serum starvation but cultured with human serum.

Experiment [3] relates to p-EGFR. The experiment can be described thus: Western blot, phosphorylated EGFR normalised to total EGFR, PC9 cells. Type of experiment: cell-based, human. Here is the method: as §1, §2, §3, §4, §5, §6
C. […]

Experiment [4] has as its system p-Akt. Briefly: Western blot, phosphorylated Akt, PC9-GR4 (T790M positive) cells. The settings on record: AZD9291 0.2 μM, Ab1, Ctrl = 100. The class given is cell-based, human.
Excerpt: as §8, §9

Another experiment concerns PC9-GR1 and GR4. Briefly: Sensitivity of T790M PC9-derived lines. Type of experiment: cell-based, human. An excerpt:
In the conduct of this study PC9-derived cell lines that are resistant to TKIs were utilized. […] They represent a model for the EGFR Mutated segment of the NSCLC patient population receiving first-line TKI treatment. […]. These two cell lines (PC9-GR1 and GR4) are sensitive to the new generation EGFR TKI developed by Astra Zeneca (AZD9291) that can also bind to the T790M EGFR mutated protein.
As described above, the PC9 cell line carries a 15 bp deletion in exon 19 of EGFR, making this cell line sensitive to TKI's. It represents a model for the EGFR Mutated segment of the NSCLC patient population receiving TKI treatment. As a part of this effort, PC9-derived cell lines resistant to TKIs were developed. […] […]. These two cell lines (PC9-GR1 and GR4) are sensitive to the new generation EGFR TKI developed by Astra Zeneca (AZD9291) that can also bind to the T790M EGFR mutated protein.

The subject of experiment [5] is pSTAT-3. Briefly: Western blot, phosphorylated STAT3, PC9-GR4 (T790M positive) cells. The settings on record: AZD9291 0.2 μM, Ab1, Ctrl = 100. The class given is cell-based, human.
Excerpt: as §8, §9

The subject of experiment [6] is pSTAT-3. Briefly: Western blot, phosphorylated STAT3 normalised to total STAT3, PC9 cells. Type of experiment: cell-based, human. Here is the method: as §1, §2, §3, §4, §5, §6, §7
In the next experiment the test system is PC9 cells. Briefly: Sensitivity of parental PC9 cells to TKIs. Type of experiment: cell-based, human.
Excerpt: (§10) In the conduct of this study PC9-derived cell lines that are resistant to TKIs were utilized. […] They represent a model for the EGFR Mutated segment of the NSCLC patient population receiving first-line TKI treatment.
as §8

For experiment [7], the system named is p-Akt. The experiment can be described thus: Western blot, phosphorylated Akt normalised to total Akt, PC9 cells. Type of experiment: cell-based, human. Here is the method:
as §1, §2, §3, §4, §5, §6, §7

Experiment [8] concerns p-ERK1/2. The experiment can be described thus: Western blot, phosphorylated ERK1/2, PC9-GR4 (T790M positive) cells. The class given is cell-based, human. The settings on record: AZD9291 0.2 μM, Ab1, Ctrl = 100.
Excerpt: as §8, §9

For the next experiment, the system named is PC9-ER and GR1 to GR5. The experiment can be described thus: cells. The class given is cell-based. The settings on record: Homo sapiens, PC-9/ER; PC9-ER and GR1 to GR5 resistant lines.
Excerpt: as §10, §8

A further experiment deals with PARP cleaved. Briefly: Western blot, cleaved (truncated) PARP, PC9 cells. The settings on record: PC9, 24 h, gefitinib 0.5 μM, Ab1 (FIG. 21). Type of experiment: cell-based, human. As for the experimental part:
as §9
(§11) A preliminary analysis was performed to test some of them: Notch3 cleaved (active form of Notch3), phosphor-YAP, Bmi1 and Hes1 (related to stem cells) and AXL (related to EMT transition). Also, PARP was investigated to determine if the antibodies induce apoptosis. Extracts of the PC9 cell line obtained in previous experiments were used. […] A not-so-significant down-regulation of Bmi1 was also observed.

In the next experiment the test system is AXL. Briefly: Western blot, AXL, PC9 cells. The class given is cell-based, human. The settings on record: PC9, 24 h, gefitinib 0.5 μM, Ab1; Ctrl = 100. Here is the method:
as §9, §11

The next experiment relates to HES1. Briefly: Western blot, Hes1 level, PC9 cells. Type of experiment: cell-based, human. The settings on record: PC9, 24 h, gefitinib 0.5 μM, Ab1; Ctrl = 100. Here is the method:
as §9, §11

The test system of a further experiment is pYAP. The experiment can be described thus: Western blot, phospho-YAP, PC9 cells. The class given is cell-based, human. The settings on record: PC9, 24 h, gefitinib 0.5 μM, Ab1; Ctrl = 100. As for the experimental part:
as §9, §11

A further experiment deals with Notch3. Briefly: Western blot, Notch3, PC9 cells. Type of experiment: cell-based, human. The settings on record: PC9, 24 h, gefitinib 0.5 μM, Ab1; Ctrl = 100. As for the experimental part:
as §9, §11

The test system of another experiment is Notch3 truncated. Briefly: Western blot, truncated (cleaved) Notch3, PC9 cells. The class given is cell-based, human. The settings on record: PC9, 24 h, gefitinib 0.5 μM, Ab1; Ctrl = 100. As for the experimental part: as §9, §11
Another experiment deals with PARP. Briefly: Western blot, total PARP, PC9 cells. The class given is cell-based, human. The settings on record: PC9, 24 h, gefitinib 0.5 μM, Ab1; Ctrl = 100. Here is the method:
as §9, §11

In a further experiment the test system is Bmi1. The experiment can be described thus: Western blot, Bmi1 level, PC9 cells. The class given is cell-based, human. The settings on record: PC9, 24 h, gefitinib 0.5 μM, Ab1; Ctrl = 100. Here is the method: as §9, §11
Where [9] appears, read: PC9, 2 h, AZD9291 0.2 μM, Ab1, Ctrl = 100.
The mark [10] stands for this setting: PC9, 0% FBS, EGF-induced, 2 h, erlotinib 1 μM, Ab 1/2 dilution, Control = 100.
Setting [11] is: PC9, 2 h, erlotinib 1 μM, anti-EGF, nonstandard conditions and serum starvation (FIG. 13, 14).
The mark [12] stands for this setting: PC9, 24 h serum starvation and drug treatment, gefitinib 0.5 μM, Ab 1/2, Control = 100.
Where [13] appears, read: PC9, serum-starved, EGF, 15 min, gefitinib 40 nM, antibody 1/20 to 1/5 (FIG. 6).

Regarding `C=CC(=O)Nc1cc(Nc2nccc(-c3cn(C)c4ccccc34)n2)c(OC)cc1N(C)CCN(C)C` [AZD9291], the “pErk ½” value in the experiment on p-ERK1/2 [1] (setting [9]) is listed as 3.7; with p-ERK1/2 [8] (PC9-GR4, 2 h) it was 53.6. The pEGFR with p-EGFR [2] (PC9-GR4, 2 h) came to 2.5; with p-EGFR [3] (setting [9]), 76.3. In the experiment on p-EGFR [2] (PC9-GR4, 24 h), this compound returned an EGFR of 138.6. For the same compound, the pAkt in the experiment with p-Akt [4] (PC9-GR4, 2 h) worked out at 42.7; in the experiment on p-Akt [7] (setting [9]), 2.9. The compound further registered an Akt with p-Akt [4] (PC9-GR4, 24 h) of 26.8. For the same compound, in the experiment on PC9-GR1 and GR4, the “sensitivity of cell lines” value was “sensitive”. Also, the pSTAT3 in the experiment on pSTAT-3 [5] (PC9-GR4, 2 h) was 60; in the experiment with pSTAT-3 [6] (setting [9]) it was 146.6. The compound also returned an STAT3 in the experiment on pSTAT-3 [5] (PC9-GR4, 24 h) of 847.5. In the experiment on PC9 cells, the IC50 – broadly, the concentration at which inhibition is half-maximal – is reported as “in the nM range”. Also, the “Erk ½” value in the experiment with p-ERK1/2 [8] (PC9-GR4, 24 h) is given as 20.5.
In the experiment with PC9-ER and GR1 to GR5, `C#Cc1cccc(Nc2ncnc3cc(OCCOC)c(OCCOC)cc23)c1` [Erlotinib, N-(3-ethynylphenyl)-6,7-bis(2-methoxyethoxy)-4-quinazolinamine] showed an IC50 of 5 to 10 µM. In the experiment on p-ERK1/2 [1] (setting [10]), this compound returned an ERK of 0. The “effect on Erk activation” value in the experiment on p-ERK1/2 [1] (setting [11]) is recorded as “inactivated”. In the experiment with p-EGFR [3] (setting [10]), the EGFR worked out at 14.3. Moreover, in the experiment with pSTAT-3 [6] (setting [10]), the STAT-3 is 130. The “effect on STAT3 activation” value with pSTAT-3 [6] (setting [11]) is given as “activated”. Further, in the experiment with p-Akt [7] (setting [10]), the Akt is reported as 0.
On to `COc1cc2ncnc(Nc3ccc(F)c(Cl)c3)c2cc1OCCCN1CCOCC1` [Gefitinib], for which, in the experiment with PARP cleaved, the PARP cleavage entry was “able to induce it”. In addition, the AXL with AXL is 135.4. Moreover, in the experiment with p-ERK1/2 [1], the “effect on Erk activation” value is on record as “inactivated”, the “effect on Erk phosphorylation” value is given as “inhibited” and the pERK amounted to 8.1. The Hes1 in the experiment on HES1 stood at 86.5. Moreover, the “p YAP (Ser 397)” value in the experiment on pYAP came out at 137.6. In the experiment with pSTAT-3 [6] (setting [12]), this compound yielded a pSTAT3 of 569.2. Further, the “effect on STAT-3 activation” value with pSTAT-3 [6] (PC9, nonstandard conditions (not serum-starved, 10% FBS, no EGF), 2 h, gefitinib 0.5 μM, anti-EGF 1/2 (FIG. 8)) is reported as “activated”. In addition, the “effect on STAT3 activation” value with pSTAT-3 [6] (PC9, serum starvation, EGF induction, 2 h, gefitinib 0.5 μM, anti-EGF 1/2 (FIG. 2, FIG. 9)) was “activated”. Moreover, in the experiment on pSTAT-3 [6] (setting [13]), the “effect on STAT3 phosphorylation” value was “activated”. The pAkt in the experiment with p-Akt [7] (setting [12]) came out at 72.6. Besides, in the experiment on p-Akt [7] (setting [13]), the “effect on Akt phosphorylation” value is reported as “inhibited”. The Notch3 in the experiment with Notch3 came to 120.8. For the same compound, in the experiment on Notch3 truncated, the Notch3 truncated is 98.9. In the experiment with PARP, the PARP total is reported as 110. In addition, the Bmi1 in the experiment with Bmi1 amounted to 100.1.
Regarding `COc1cc2c(Oc3ccc(NC(=O)C4(C(=O)Nc5ccc(F)cc5)CC4)cc3F)ccnc2cc1OCCCN1CCOCC1` [foretinib], the IC50 result in the experiment with PC9 cells was “in the nM range”.
